Target: T1, MLLT1 (Homo sapiens, UniProt Q03111)
T1 sequence (Q03111 1-559): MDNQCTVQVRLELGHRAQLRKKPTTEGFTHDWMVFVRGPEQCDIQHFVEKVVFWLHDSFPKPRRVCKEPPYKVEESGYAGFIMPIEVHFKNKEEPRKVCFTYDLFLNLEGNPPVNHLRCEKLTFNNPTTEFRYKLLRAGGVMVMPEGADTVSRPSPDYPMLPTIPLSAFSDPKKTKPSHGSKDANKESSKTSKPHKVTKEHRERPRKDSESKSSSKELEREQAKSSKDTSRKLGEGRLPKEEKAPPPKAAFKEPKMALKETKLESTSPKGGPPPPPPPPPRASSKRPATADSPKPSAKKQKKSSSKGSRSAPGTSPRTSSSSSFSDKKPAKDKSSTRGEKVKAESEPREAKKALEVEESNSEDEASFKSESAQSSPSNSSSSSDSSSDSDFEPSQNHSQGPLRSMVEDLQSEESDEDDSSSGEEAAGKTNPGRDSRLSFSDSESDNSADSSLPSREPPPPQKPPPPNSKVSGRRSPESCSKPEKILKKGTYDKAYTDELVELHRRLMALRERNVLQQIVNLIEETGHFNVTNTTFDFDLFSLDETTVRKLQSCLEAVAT
Experiment: MLLT1 degradation assay in MV4-11 cells (JESS, 24 h)
Type: cell-based
Design: endogenous in cells; host or cells: MV4-11 (ATCC CRL-9591)
Settings: vs DMSO control
Procedure: MLLT1 degradation efficacy of compounds was tested in an automated chemiluminescent detection system (JESS, Cat #004-650). MV4-11 (#CRL-9591, ATCC) cells were seeded at a density of 1.2 million cells/well in a non-treated 6-well cell culture plate in 2.4 mL of complete medium (IMDM+10% FBS+1× Penicillin-Streptomycin). 10 mM DMSO stocks were prepared, and cells were treated with three concentrations of test compounds viz. 1000, 100 and 10 nM at a final DMSO concentration of 0.1% and incubated for 24 h at 37° C., 5% CO2. Post incubation, cells were centrifuged, washed with HBSS and lysed in 70 μL of RIPA buffer supplemented with Protease inhibitors (sc-24948; Santa Cruz). Subsequently, protein estimation was done using BCA protein assay kit (23225; Pierce). 4 ug protein lysate (4 uL of 1 ug/uL lysate) was loaded into each well of the JESS cartridge (SM-W001; Bio-techne) and the JESS run was performed using 1:900 dilution of anti-human MLLT1 antibody (14893; Cell signaling technology) and 1:1200 dilution of anti-human GAPDH antibody (2118; Cell signaling technology) with anti-rabbit secondary detection module (DM-001; Bio-Techne). Post run, data were analysed using “Compass for SW” software for chemiluminescent detection. The peak area for each band was used for the calculation of MLLT1 degradation with respect to DMSO control. Data is shown as “MLLT1% degradation”. • Category A: A≥75% degradation • Category B: 50%≤B<75% degradation • Category C: 25%≤C<50% degradation • Category D: D<25% degradation

With Cc1c(C#CCCCCCn2nc(C)c3ccc(C(=O)Nc4cc5[nH]c([C@H]6CCCN6C)cc5cn4)cc32)cccc1C(=O)NC1CCC(=O)NC1=O (stereo partly drawn) [Example 35, 1-(7-(3-((2,6-dioxopiperidin-3-yl)carbamoyl)-2-methylphenyl)hept-6-yn-1-yl)-3-methyl-N-(2-((R)-1-methylpyrrolidin-2-yl)-1H-pyrrolo[3,2-c]pyridin-6-yl)-1H-indazole-6-carboxamide] the “MLLT1% Degradation @ 0.01 μM” value was “C (Category C: 25%≤C<50% degradation)”, the “MLLT1% Degradation @ 0.1 μM” value was “D (Category D: D<25% degradation)” and the “MLLT1% Degradation @ 1 μM” value was “B (Category B: 50%≤B<75% degradation)”.
CN1CCC[C@@H]1c1cc2cnc(NC(=O)c3ccc4c(c3)c(N3CCC(CN5CCN(c6cc7c(cc6F)C(=O)N(C6CCC(=O)NC6=O)C7=O)CC5)CC3)nn4C)cc2[nH]1 (stereo partly drawn) [Example 6, 3-[4-({4-[2-(2,6-dioxopiperidin-3-yl)-6-fluoro-1,3-dioxoisoindol-5-yl]piperazin-1-yl}methyl)piperidin-1-yl]-1-methyl-N-{2-[(2R)-1-methylpyrrolidin-2-yl]-1H-pyrrolo[3,2-c]pyridin-6-yl}indazole-5-carboxamide] was tested, and the “MLLT1% Degradation @ 0.01 μM” value was “C (Category C: 25%≤C<50% degradation)”, the “MLLT1% Degradation @ 0.1 μM” value was “B (Category B: 50%≤B<75% degradation)” and the “MLLT1% Degradation @ 1 μM” value was “A (Category A: A≥75% degradation)”.
For Cc1nn(CCCCCCCCNc2cccc3c2C(=O)N(C2CCC(=O)NC2=O)C3=O)c2cc(C(=O)Nc3cc4[nH]c([C@@H]5CCCN5C)cc4cn3)ccc12 (stereo partly drawn) [Example 4, 1-(8-{[2-(2,6-dioxopiperidin-3-yl)-1,3-dioxoisoindol-4-yl]amino}octyl)-3-methyl-N-{2-[(2S)-1-methylpyrrolidin-2-yl]-1H-pyrrolo[3,2-c]pyridin-6-yl}indazole-6-carboxamide], the “MLLT1% Degradation @ 0.01 μM” value was “D (Category D: D<25% degradation)”, the “MLLT1% Degradation @ 0.1 μM” value was “D (Category D: D<25% degradation)” and the “MLLT1% Degradation @ 1 μM” value was “B (Category B: 50%≤B<75% degradation)”.
For Cc1nn(CCCCCC#Cc2cccc(C(=O)NC3CCC(=O)NC3=O)c2F)c2cc(C(=O)Nc3cc4[nH]c([C@H]5CCCN5C)cc4cn3)ccc12 (stereo partly drawn) [Example 34, 1-(7-(3-((2,6-dioxopiperidin-3-yl)carbamoyl)-2-fluorophenyl)hept-6-yn-1-yl)-3-methyl-N-(2-((R)-1-methylpyrrolidin-2-yl)-1H-pyrrolo[3,2-c]pyridin-6-yl)-1H-indazole-6-carboxamide], the “MLLT1% Degradation @ 0.01 μM” value was “D (Category D: D<25% degradation)”, the “MLLT1% Degradation @ 0.1 μM” value was “B (Category B: 50%≤B<75% degradation)” and the “MLLT1% Degradation @ 1 μM” value was “A (Category A: A≥75% degradation)”.
With Cc1nn(CCCCCCCC#Cc2cccc(C3CCC(=O)NC3=O)n2)c2cc(C(=O)Nc3cc4[nH]c([C@H]5CCCN5C)cc4cn3)ccc12 (stereo partly drawn) [Example 62, 1-(9-(6-(2,6-dioxopiperidin-3-yl)pyridin-2-yl)non-8-yn-1-yl)-3-methyl-N-(2-((R)-1-methylpyrrolidin-2-yl)-1H-pyrrolo [3,2-c]pyridin-6-yl)-1H-indazole-6-carboxamide] the “MLLT1% Degradation @ 0.01 μM” value was “B (Category B: 50%≤B<75% degradation)”, the “MLLT1% Degradation @ 0.1 μM” value was “B (Category B: 50%≤B<75% degradation)” and the “MLLT1% Degradation @ 1 μM” value was “A (Category A: A≥75% degradation)”.
In the case of Cc1nn(CCCC2CCN(c3ccc(C(=O)NC4CCC(=O)NC4=O)cc3F)CC2)c2cc(C(=O)Nc3cc4[nH]c([C@H]5CCCN5C)cc4cn3)ccc12 (stereo partly drawn) [Example 28, 1-(3-(1-(4-((2,6-dioxopiperidin-3-yl)carbamoyl)-2-fluorophenyl)piperidin-4-yl)propyl)-3-methyl-N-(2-((R)-1-methylpyrrolidin-2-yl)-1H-pyrrolo[3,2-c]pyridin-6-yl)-1H-indazole-6-carboxamide], the “MLLT1% Degradation @ 0.1 μM” value is reported as “C (Category C: 25%≤C<50% degradation)” and the “MLLT1% Degradation @ 1 μM” value is reported as “C (Category C: 25%≤C<50% degradation)”.

— patent US20260199484A1, “PROTAC DEGRADERS OF MLLT1 AND/OR MLLT3” (DARK BLUE THERAPEUTICS LTD, priority 2024, published 2026)
